Experimental data from patent US10238676B2, “Application of ginsenoside RG3 in preparing medicine for preventing and/or treating dementia, and medicine for treating dementia” (priority 2013, dated 2019).

Experiments:
[1] = Content of ginsenoside Rg3 in rat cerebrospinal fluid (BBB test, LC/MS/MS); type: in vivo, SD rats; conditions: rats, orally 10 mg/kg
Description: 1) Oral administration: an oral preparation of ginsenoside Rg3 is given to SD rats by lavage, the medicines of all high-dosage, medium-dosage and low-dosage groups are: 20, 10 and 5 mg/kg (the dosage above is pure dosage of Rg3)/bid, respectively, and each dosage group has 18 rats;
Rat cerebrospinal fluid is sucked after orally, topically and injection administering different preparations of ginsenoside Rg3 for 4 hours. […] Each rat is anesthetized with 10% chloral hydrate by intraperitoneal injection, the head of the rat is fixed by brain straight body positioning ear rods and front tooth rods, the occipital region is sheared and sterilized, and a longitudinal incision (about 2 cm) is cut along the posterior midline, and the muscles at the dorsal part of napex are bluntly separated with a pair of scissors. […]
The medicine concentrations in the rat cerebrospinal fluid are determined by LC/MS/MS methods. […]

[2] = tested on: intracerebral cholinergic nerve system of rat model with Alzheimer's disease; assay: AChE positive nerve fiber density of cortex and hippocampal formation, rat model with Alzheimer's disease (D-galactose + IBO); type: in vivo, Wistar rats; conditions: AD model rats, 6 weeks; for N Frontal lobe AchE positive nerve fiber density: Rg3 lotion (embodiment 7) on both sides of nose; for N Entorhinal cortex AchE positive nerve fiber density / N Occipital lobe AchE positive nerve fiber density / Parietal lobe AchE positive nerve fiber density / N Stratum lacunosum-moleculare AchE positive nerve fiber density / N Stratum moleculare of dentate gyrus AchE positive nerve fiber density / N Stratum oriens AchE positive nerve fiber density / N Stratum radiatum AchE positive nerve fiber density: Rg3 lotion topical; for N Stratum lacunosum-moleculare AchE positive nerve fiber density / N Stratum moleculare of dentate gyrus AchE positive nerve fiber density / N Stratum oriens AchE positive nerve fiber density / N Stratum radiatum AchE positive nerve fiber density: hippocampal formation
Source text: 60 Wistar rats each of which having the body weight of 300-500 g are randomly divided into 6 groups, with 10 in each group, and the groups are named a preliminary elder normal control group, a preliminary elder AD model group, a positive medicine Huperzine A group, and high-dose, medium-dose and low-dose of Ginsenoside Rg3 topical preparation groups according to different treatment methods, respectively. The rats are bred in separate cages, each holding 4-5 rats, with natural lighting and random drinking and feeding provided. Physiological saline is injected in the abdominal cavity and grain of each rat in the preliminary elder normal control group; Galactose intraperitoneal injection and IBO intracerebral injection are given to all rats in the preliminary elder AD model group, the positive medicine Huperzine A group, and the high-dose, medium-dose and low-dose Ginsenoside Rg3 topical preparation groups; while the rats in the Huperzine A group and the high-dose, medium-dose and low-dose of Ginsenoside Rg3 topical preparation groups are subjected to D-galactose injection for modeling, rat of each group is given Huperzine A 0.3 mg/kg/d and Ginsenoside Rg3 10, 5, 2.5 mg/kg/d respectively. Ginsenoside Rg3 is applied to both sides of the nose of each rat of Ginsenoside Rg3 topical preparation groups. All the rats are subjected to the medicines continuously for 6 weeks and then intracerebral bilateral Meynert nuclei injection is carried out. Reference is made to a rat cerebral stereotaxic atlas for Meynert nuclei localization, and localization coordinates are AP-0.8 mm, Late 2.6 mm and DV 8.2 mm During intracerebral injection, a rat is anesthetized with 3% pentobarbital sodium (30 mg/kg) and then immobilized to a cerebral stereotaxic apparatus, physiological saline dissolved IBO (injection 1 μl for each side containing 5 μg of IBO) or 1 μl normal saline is injected slowly into a Meynert nucleus, each side takes injection for 5 minutes, and needle retaining for 10 minutes, wherein all the rats are subjected to cerebral perfusion with 4% paraformaldehyde after modeling and are then immobilized for 24 hours, and the brain is put in a sucrose phosphate buffer until brain tissue blocks sink, the blocks are frozen in a incubator and serially sectioned to […] in thickness. The sections are subjected to acetycholinesterase (AChE) histochemical staining by methods recommended by Hedreen, et al. Observation is given to the frontal lobe, the parietal lobe, the occipital lobe and the entorhinal cortex (layer II) as well as parts in a hippocampal CA1 region of the hippocampal formation such as a stratum oriens, a stratum radiatum, a stratum lacunosum-moleculare and a stratum moleculare of dentate gyrus for observing their AChE positive nerve fiber densities, and the AChE positive nerve fiber densities are counted with a number of intersections of positive fibers with a standard grid by using a micrometer used for a microscope.
A significance level a is equal to 0.05.

β-amyloid protein (Aβ) = assay: Cerebrospinal fluid β-amyloid protein content (ELISA) of patients with Alzheimer's disease; type: in vivo, human; conditions: AD inpatients
Description: 2 ml of cerebrospinal fluid is collected by lumbar puncture, and is stored at −80° C., the β-amyloid protein (Aβ) content is determined by using enzyme-linked immunosorbent assay (ELISA). A revised Hasegawa dementia scale (HDS-R) is used to score, and the scores before and after treatment are compared, increasing in scores means validness, and unchanging or decreasing in scores means invalidness. The enumeration data adopts χ^2 test, the comparison of measurement data adopts t-test, all data is processed by adopting SPSS12.0 statistical software.

[3] = cited from earlier work
[4] = tested on: patients with mild or moderate Alzheimer's disease; assay: Self-controlled clinical research, MMSE/CDR/ADL, mild or moderate Alzheimer's disease (Test Example 5); type: in vivo, human
Description: 99 patients with mild or moderate Alzheimer's disease, among which 47 are male, 52 are female, all aged from 55 to 85 (73.5±7.6), MMSE score is […] (16.3±2.6) points.
Patients with AD all use the ginsenoside Rg3 naristillae once a day, 10 mg/ml each time, and keep using it for 12 weeks.
Examination is conducted once every four weeks before and after medication, and the medication method is as follows:
(1) MMSE screening of AD: examining patients' cognitive functions (orientation, memory, computational power, language competence, ability in applying visual-spatial etc.; (2) Examining patents' dementia degree using the clinical dementia rating (CDR); (3) examining patents' activities of daily living using the activity of daily living scale (ADL).
SPSS statistical software is adopted for examination results. T-test is adopted before and after treatment, and it is also adopted for the ginsenoside Rg3 naristillae group and the placebo control group.

[5] = 99 AD patients, Rg3 naristillae 10 mg/ml once a day
[6] = Test Example 5, versus before treatment

## CC(C)=CCC[C@](C)(O)[C@H]1CC[C@]2(C)[C@@H]1[C@H](O)C[C@@H]1[C@@]3(C)CC[C@H](O[C@@H]4O[C@H](CO)[C@@H](O)[C@H](O)[C@H]4O[C@@H]4O[C@H](CO)[C@@H](O)[C@H](O)[C@H]4O)C(C)(C)[C@@H]3CC[C@]12C [Ginsenoside Rg3, 20(R)-ginsenoside Rg3]
[1]
  Ginsenoside Rg3 in cerebrospinal fluid sample (FIG. 2C chromatogram): 10.8 ng/g
[2]; 2.5 mg/kg/d
  N Frontal lobe AchE positive nerve fiber density: 122.7 ± 18.6^Δ 10^2 · mm^−2
  N Entorhinal cortex AchE positive nerve fiber density: 130.2 ± 15.6 10^2 · mm^−2
  N Occipital lobe AchE positive nerve fiber density: 145.2 ± 9.2^ΔΔ** 10^2 · mm^−2
  Parietal lobe AchE positive nerve fiber density: 162.9 ± 22.0^#** 10^2 · mm^−2
  N Stratum lacunosum-moleculare AchE positive nerve fiber density: 77.2 ± 9.1^ΔΔ** 10^2 · mm^−2
  N Stratum moleculare of dentate gyrus AchE positive nerve fiber density: 119.8 ± 12.4 10^2 · mm^−2
  N Stratum oriens AchE positive nerve fiber density: 140.1 ± 20.5^Δ 10^2 · mm^−2
  N Stratum radiatum AchE positive nerve fiber density: 122.4 ± 14.4^#** 10^2 · mm^−2
[2]; 5 mg/kg/d
  N Frontal lobe AchE positive nerve fiber density: 130.7 ± 20.8^Δ 10^2 · mm^−2
  N Entorhinal cortex AchE positive nerve fiber density: 142.6 ± 11.9 10^2 · mm^−2
  N Occipital lobe AchE positive nerve fiber density: 160.2 ± 10.2^ΔΔ** 10^2 · mm^−2
  Parietal lobe AchE positive nerve fiber density: 170.9 ± 21.2^#** 10^2 · mm^−2
  N Stratum lacunosum-moleculare AchE positive nerve fiber density: 84.2 ± 10.9^ΔΔ** 10^2 · mm^−2
  N Stratum moleculare of dentate gyrus AchE positive nerve fiber density: 131.5 ± 14.7 10^2 · mm^−2
  N Stratum oriens AchE positive nerve fiber density: 153.0 ± 22.1^Δ 10^2 · mm^−2
  N Stratum radiatum AchE positive nerve fiber density: 135.1 ± 23.9^#** 10^2 · mm^−2
[2]; 10 mg/kg/d
  N Frontal lobe AchE positive nerve fiber density: 143.7 ± 22.1^Δ 10^2 · mm^−2
  N Entorhinal cortex AchE positive nerve fiber density: 161.1 ± 18.3^ΔΔ**° 10^2 · mm^−2
  N Occipital lobe AchE positive nerve fiber density: 167.2 ± 12.9^ΔΔ**° 10^2 · mm^−2
  Parietal lobe AchE positive nerve fiber density: 183.9 ± 24.9^#**° 10^2 · mm^−2
  N Stratum lacunosum-moleculare AchE positive nerve fiber density: 99.2 ± 17.3^Δ 10^2 · mm^−2
  N Stratum moleculare of dentate gyrus AchE positive nerve fiber density: 142.7 ± 11.9 10^2 · mm^−2
  N Stratum oriens AchE positive nerve fiber density: 171.1 ± 16.9^Δ 10^2 · mm^−2
  N Stratum radiatum AchE positive nerve fiber density: 143.2 ± 20.5^ΔΔ 10^2 · mm^−2
β-amyloid protein (Aβ); n = 18, Rg3 oral liquid 10 mg/d or donepezil 5 mg/d orally, 12 weeks
  Aβ content in cerebrospinal fluid, post treatment: 3.8 ± 1.5
β-amyloid protein (Aβ); n = 18 per group, baseline
  Aβ content in cerebrospinal fluid, before treatment: 5.9 ± 2.6
[3]; animal pharmacokinetic experiments, oral preparations
  medicine in native form not absorbed and excreted through feces: about 80%
[3]; oral
  oral absorption percentage: about 10.28%
[4]; 99 AD patients, baseline
  ADL score before treatment: 49.6 ± 8.2 points
  CDR score before treatment: 2.1 ± 0.3 points
  MMSE score before treatment: 16.3 ± 2.6 points
[4]; [5]
  ADL score, treatment for 4 weeks: 48.2 ± 7.9 points
  ADL score, treatment for 12 weeks: 42.5 ± 7.3 points
  CDR score, treatment for 4 weeks: 1.9 ± 0.2 points
  CDR score, treatment for 12 weeks: 1.5 ± 0.2 points
  MMSE score, treatment for 4 weeks: 17.1 ± 1.9 points
  MMSE score, treatment for 12 weeks: 19.8 ± 1.7 points
[4]; [6]
  decrease of ADL score after treatment: 7.1 points
  decrease of CDR score after treatment for 12 weeks: 0.6 points
  increase of MMSE score after treatment for 12 weeks: 3.5 points
